Measurements taken from US12594268B2, “Methods of treating Fabry disease in patients having a mutation in the GLA gene” (Amicus Therapeutics, Inc., priority 2018, dated 2026).
Changes are numbered by the printed parent chain.

Assays:
Format in all cases: cell-based
[1] = target: T1, α-Gal A mutant form T194A (Homo sapiens, UniProt P06280, T194A); test: α-Gal A activity in lysates of transfected HEK-293 cells, T194A
T1 construct: expressed in transfected cells; host or cells: HEK-293
T1 sequence (P06280 32-429 T194A): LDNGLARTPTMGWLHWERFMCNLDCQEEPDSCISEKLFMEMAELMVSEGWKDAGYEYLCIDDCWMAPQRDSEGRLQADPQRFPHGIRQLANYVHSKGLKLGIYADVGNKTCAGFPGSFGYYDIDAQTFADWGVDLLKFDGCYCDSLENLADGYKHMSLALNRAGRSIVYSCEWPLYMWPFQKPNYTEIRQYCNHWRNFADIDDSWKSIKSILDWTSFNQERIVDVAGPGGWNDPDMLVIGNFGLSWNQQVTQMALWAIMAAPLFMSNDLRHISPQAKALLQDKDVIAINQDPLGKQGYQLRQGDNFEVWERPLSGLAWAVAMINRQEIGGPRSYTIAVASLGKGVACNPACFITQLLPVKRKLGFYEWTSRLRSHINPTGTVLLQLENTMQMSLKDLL
Procedure: (§1) Baseline and 10 μM migalastat α-Gal A activity: Differences in the α-Gal A activity between lysates incubated in the absence and presence of 10 μM migalastat were determined using a one-tailed, Mann Whitney U test; an increase at 10 μM migalastat with a p<0.05 was considered significant.
(§2) 10 μM migalastat α-Gal A activity (% WT)=(α-Gal A activity in mutant transfected cell lysates incubated with 10 μM migalastat÷α-Gal A activity in wild-type transfected cell lysates without migalastat)*100.
(§3) Absolute increase (% WT)=is the 10 μM migalastat α-Gal A activity (% WT) minus the baseline α-Gal A activity (% WT).
(§4) Relative increase is the 10 μM migalastat α-Gal A activity in mutant transfected cell lysates÷baseline α-Gal A activity in mutant transfected cell lysates incubated without migalastat.

[2] = target: T2, α-Gal A mutant form A257V (Homo sapiens, UniProt P06280, A257V); test: α-Gal A activity in lysates of transfected HEK-293 cells, A257V
T2 construct: expressed in transfected cells; host or cells: HEK-293
T2 sequence (P06280 32-429 A257V): T1 sequence (P06280 32-429 T194A) with A163T, A226V
Procedure: as §1, §2, §3, §4

[3] = target: T3, α-Gal A mutant form P259Q (Homo sapiens, UniProt P06280, P259Q); test: α-Gal A activity in lysates of transfected HEK-293 cells, P259Q
T3 construct: expressed in transfected cells; host or cells: HEK-293
T3 sequence (P06280 32-429 P259Q): T1 sequence (P06280 32-429 T194A) with A163T, P228Q
Procedure: as §1, §2, §3, §4

[4] = target: T4, α-Gal A mutant form T412P (Homo sapiens, UniProt P06280, T412P); test: α-Gal A activity in lysates of transfected HEK-293 cells, T412P
T4 construct: expressed in transfected cells; host or cells: HEK-293
T4 sequence (P06280 32-429 T412P): T1 sequence (P06280 32-429 T194A) with A163T, T381P
Procedure: as §1, §2, §3, §4

[5] = target: T5, α-Gal A mutant form N228D (Homo sapiens, UniProt P06280, N228D); test: α-Gal A activity in lysates of transfected HEK-293 cells, N228D
T5 construct: expressed in transfected cells; host or cells: HEK-293
T5 sequence (P06280 32-429 N228D): T1 sequence (P06280 32-429 T194A) with A163T, N197D
Procedure: as §1, §2, §3, §4

[6] = 10 μM migalastat minus baseline
[7] = 10 μM migalastat ÷ baseline activity
[8] = HEK-293 lysates, 10 μM migalastat, 5 days, mean ± SEM

Absolute increase (% WT) [1, 6]: 19.7 % WT
Relative increase [1, 7]: 2.75
10 nM migalastat α-Gal A activity ([1]; HEK-293 lysates, 10 nM migalastat as printed, 5 days, mean ± SEM): 10315 ± 459 nmol/mg/h
10 μM migalastat α-Gal A activity (% WT) [1, 8]: 30.5 ± 2.0 % WT
Absolute increase (% WT) [2, 6]: 44.4 % WT
Relative increase [2, 7]: 1.85
10 μM migalastat α-Gal A activity [2, 8]: 30313 ± 1981 nmol/mg/h
10 μM migalastat α-Gal A activity (% WT) [2, 8]: 99.9 ± 4.6 % WT
Absolute increase (% WT) [3, 6]: 36.1 % WT
Relative increase [3, 7]: 1.90
10 μM migalastat α-Gal A activity [3, 8]: 25935 ± 2020 nmol/mg/h
10 μM migalastat α-Gal A activity (% WT) [3, 8]: 73.6 ± 5.0 % WT
Absolute increase (% WT) [4, 6]: 16.9 % WT
Relative increase [4, 7]: 11.21
10 μM migalastat α-Gal A activity [4, 8]: 7159 ± 459 nmol/mg/h
10 μM migalastat α-Gal A activity (% WT) [4, 8]: 18.6 ± 1.2 % WT
Absolute increase (% WT) [5, 6]: 48.2 % WT
Relative increase [5, 7]: 4.12
10 μM migalastat α-Gal A activity [5, 8]: 25816 ± 2273 nmol/mg/h
10 μM migalastat α-Gal A activity (% WT) [5, 8]: 63.2 ± 5.4 % WT
SMILES: OC[C@H]1NC[C@H](O)[C@@H](O)[C@H]1O [migalastat, (2R,3S,4R,5S)-2-(hydroxymethyl) piperdine-3,4,5-triol]
